Legend:
duck salad = experiment: Test B flood test duck salad; format: in vivo, Heteranthera limosa
Method in brief: (§1)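 Each value is a visual injury score relative to controls, with 10 meaning complete control and 0 no effect. Evaluation took place twelve to sixteen days after the 2-leaf-stage plants were treated and kept in the greenhouse.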

velvetleaf = experiment: Test B pre/postemergence velvetleaf; format: in vivo, Abutilon theophrasti
Method in brief: (§2)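 Herbicidal effect was estimated by eye on a ten-point control scale after plants spent twelve to sixteen days in a greenhouse following soil or foliar treatment. Foliar sprays targeted plants at one to four leaves; all doses were formulated in a non-phytotoxic solvent with surfactant.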

purple nutsedge = experiment: Test B pre/postemergence purple nutsedge; format: in vivo, Cyperus rotundus
Method in brief: as §2

smallflower flatsedge = experiment: Test B flood test smallflower flatsedge; format: in vivo, Cyperus difformis
Method in brief: as §1

corn = experiment: Test B pre/postemergence corn; format: in vivo, Zea mays
Method in brief: as §2

crabgrass = experiment: Test B pre/postemergence crabgrass; format: in vivo, Digitaria sanguinalis
Method in brief: as §2

morningglory = experiment: Test B pre/postemergence morningglory; format: in vivo, Ipomoea hederacea
Method in brief: as §2

wheat = experiment: Test B pre/postemergence wheat; format: in vivo, Triticum aestivum
Method in brief: as §2

cocklebur = experiment: Test B pre/postemergence cocklebur; format: in vivo, Xanthium strumarium
Method in brief: as §2

soybean = experiment: Test B pre/postemergence soybean; format: in vivo, Glycine max
Method in brief: as §2

giant foxtail = experiment: Test B pre/postemergence giant foxtail; format: in vivo, Setaria faberii
Method in brief: as §2

sugar beet = experiment: Test B pre/postemergence sugar beet; format: in vivo, Beta vulgaris
Method in brief: as §2

rice = experiment: Test B flood test rice; format: in vivo, Oryza sativa
Method in brief: as §1

pigweed = experiment: Test B pre/postemergence pigweed; format: in vivo, Amaranthus retroflexus
Method in brief: as §2

wild oat = experiment: Test B pre/postemergence wild oat; format: in vivo, Avena fatua
Method in brief: as §2

rape = experiment: Test B pre/postemergence rape; format: in vivo, Brassica napus
Method in brief: as §2

[1] = Rate 62 g/ha, flood test species, Pre-emergence, visual evaluation after twelve to sixteen days
[2] = Rate 125 g/ha, under heading Pre-emergence, flood test species, visual evaluation after twelve to sixteen days
[3] = Rate 250 g/ha, Pre-emergence (flood test species), scale 0 to 10, 0 is no effect, 10 is complete control
[4] = Rate 500 g/ha, Pre-emergence section of Table B, 0 to 10 scale (0 no effect, 10 complete control)
[5] = Postemergence, Rate 62 g/ha, scale 0 to 10, 0 is no effect, 10 is complete control
[6] = Postemergence, Rate 125 g/ha, scale of 0 to 10 where 0 is no effect and 10 is complete control
[7] = Postemergence, Rate 250 g/ha, scale of 0 to 10, 0 is no effect, 10 is complete control
[8] = Preemergence, Rate 62 g/ha, scale 0 to 10 (0 no effect, 10 complete control)
[9] = Preemergence, Rate 125 g/ha, scale of 0 to 10 where 0 is no effect and 10 is complete control
[10] = Preemergence, Rate 250 g/ha, scale 0 to 10 (0 no effect, 10 complete control)
[11] = Preemergence, Rate 500 g/ha, scale of 0 to 10 where 0 is no effect and 10 is complete control
[12] = Postemergence, Rate 500 g/ha, scale of 0 to 10 where 0 is no effect and 10 is complete control

## CCOC(Cn1c(=O)on(C(=O)N(c2ccc(F)cc2)C(C)C)c1=O)OCC [Compound 629]
Duck salad; [1]
  Plant response rating, Ducksalad (0 to 10 scale, 0 is no effect, 10 is complete control): 0
Duck salad; [2]
  Ducksalad plant response rating (0 to 10 scale, 0 is no effect, 10 is complete control): 0
Duck salad; [3]
  Ducksalad plant response rating: 0
Duck salad; [4]
  Ducksalad plant response rating: 0
velvetleaf; [5]
  Plant response rating, Velvetleaf: 0
velvetleaf; [6]
  Plant response rating, Velvetleaf: 5
velvetleaf; [7]
  Velvetleaf plant response rating: 5
velvetleaf; [8]
  Velvetleaf plant response rating: 3
velvetleaf; [9]
  Velvetleaf plant response rating: 6
velvetleaf; [10]
  Plant response rating, Velvetleaf: 6
velvetleaf; [11]
  Plant response rating, Velvetleaf: 8
Purple nutsedge; [5]
  Plant response rating, Nutsedge: 0
Purple nutsedge; [6]
  Plant response rating, Nutsedge: 0
Purple nutsedge; [7]
  Nutsedge plant response rating: 0
Purple nutsedge; [12]
  Plant response rating, Nutsedge: 0
Purple nutsedge; [8]
  Nutsedge plant response rating: 0
Purple nutsedge; [9]
  Nutsedge plant response rating: 2
Purple nutsedge; [10]
  Plant response rating, Nutsedge: 5
Purple nutsedge; [11]
  Plant response rating, Nutsedge: 5
Smallflower flatsedge; [1]
  Plant response rating, S. Flatsedge (0 to 10 scale, 0 is no effect, 10 is complete control): 0
Smallflower flatsedge; [2]
  S. Flatsedge plant response rating (0 to 10 scale, 0 is no effect, 10 is complete control): 0
Smallflower flatsedge; [3]
  S. Flatsedge plant response rating: 0
Smallflower flatsedge; [4]
  S. Flatsedge plant response rating: 0
corn; [5]
  Plant response rating, Corn: 3
corn; [6]
  Plant response rating, Corn: 3
corn; [7]
  Corn plant response rating: 4
corn; [12]
  Plant response rating, Corn: 6
corn; [8]
  Corn plant response rating: 1
corn; [9]
  Corn plant response rating: 2
corn; [10]
  Plant response rating, Corn: 6
corn; [11]
  Plant response rating, Corn: 8
crabgrass; [5]
  Plant response rating, Crabgrass: 1
crabgrass; [6]
  Plant response rating, Crabgrass: 3
crabgrass; [7]
  Crabgrass plant response rating: 8
crabgrass; [12]
  Plant response rating, Crabgrass: 9
crabgrass; [8]
  Crabgrass plant response rating: 7
crabgrass; [9]
  Crabgrass plant response rating: 9
crabgrass; [10]
  Plant response rating, Crabgrass: 9
crabgrass; [11]
  Plant response rating, Crabgrass: 10
morningglory; [5]
  Plant response rating, Morningglory: 2
morningglory; [6]
  Plant response rating, Morningglory: 2
morningglory; [7]
  Morningglory plant response rating: 3
morningglory; [12]
  Plant response rating, Morningglory: 3
morningglory; [8]
  Morningglory plant response rating: 0
morningglory; [9]
  Morningglory plant response rating: 0
morningglory; [10]
  Plant response rating, Morningglory: 0
morningglory; [11]
  Plant response rating, Morningglory: 4
wheat; [5]
  Plant response rating, Wheat: 0
wheat; [6]
  Plant response rating, Wheat: 0
wheat; [7]
  Wheat plant response rating: 0
wheat; [8]
  Wheat plant response rating: 0
wheat; [9]
  Wheat plant response rating: 0
wheat; [10]
  Plant response rating, Wheat: 3
wheat; [11]
  Plant response rating, Wheat: 3
cocklebur; [5]
  Plant response rating, Cocklebur: 0
cocklebur; [6]
  Plant response rating, Cocklebur: 0
cocklebur; [7]
  Cocklebur plant response rating: 0
cocklebur; [12]
  Plant response rating, Cocklebur: 2
cocklebur; [8]
  Cocklebur plant response rating: 0
cocklebur; [9]
  Cocklebur plant response rating: 0
cocklebur; [10]
  Plant response rating, Cocklebur: 3
cocklebur; [11]
  Plant response rating, Cocklebur: 7
soybean; [5]
  Plant response rating, Soybean: 4
soybean; [6]
  Plant response rating, Soybean: 6
soybean; [7]
  Soybean plant response rating: 7
soybean; [8]
  Soybean plant response rating: 0
soybean; [9]
  Soybean plant response rating: 0
soybean; [10]
  Plant response rating, Soybean: 0
soybean; [11]
  Plant response rating, Soybean: 0
Giant foxtail; [5]
  Plant response rating, Giant foxtail: 3
Giant foxtail; [6]
  Plant response rating, Giant foxtail: 8
Giant foxtail; [7]
  Giant foxtail plant response rating: 9
Giant foxtail; [12]
  Plant response rating, Giant foxtail: 9
Giant foxtail; [8]
  Giant foxtail plant response rating: 8
Giant foxtail; [9]
  Giant foxtail plant response rating: 10
Giant foxtail; [10]
  Plant response rating, Giant foxtail: 10
Giant foxtail; [11]
  Plant response rating, Giant foxtail: 10
Sugar beet; [5]
  Plant response rating, Sugarbeets: 0
Sugar beet; [6]
  Plant response rating, Sugarbeets: 0
Sugar beet; [7]
  Sugarbeets plant response rating: 0
Sugar beet; [8]
  Sugarbeets plant response rating: 2
Sugar beet; [10]
  Plant response rating, Sugarbeets: 3
Sugar beet; [11]
  Plant response rating, Sugarbeets: 7
rice; [1]
  Plant response rating, Rice (0 to 10 scale, 0 is no effect, 10 is complete control): 0
rice; [2]
  Rice plant response rating (0 to 10 scale, 0 is no effect, 10 is complete control): 0
rice; [3]
  Rice plant response rating: 0
rice; [4]
  Rice plant response rating: 0
pigweed; [5]
  Plant response rating, Redroot pigweed: 0
pigweed; [7]
  Redroot pigweed plant response rating: 2
pigweed; [8]
  Redroot pigweed plant response rating: 2
pigweed; [9]
  Redroot pigweed plant response rating: 10
pigweed; [10]
  Plant response rating, Redroot pigweed: 10
pigweed; [11]
  Plant response rating, Redroot pigweed: 10
Wild oat; [5]
  Plant response rating, Wild oats: 0
Wild oat; [6]
  Plant response rating, Wild oats: 0
Wild oat; [8]
  Wild oats plant response rating: 0
Wild oat; [9]
  Wild oats plant response rating: 0
Wild oat; [10]
  Plant response rating, Wild oats: 9
Wild oat; [11]
  Plant response rating, Wild oats: 9
rape; [5]
  Plant response rating, Rape: 0
rape; [6]
  Plant response rating, Rape: 0
rape; [7]
  Rape plant response rating: 0
rape; [12]
  Plant response rating, Rape: 3
rape; [8]
  Rape plant response rating: 0
rape; [9]
  Rape plant response rating: 0
rape; [10]
  Plant response rating, Rape: 4
rape; [11]
  Plant response rating, Rape: 9

Source: US6737383B1, “Herbicidal oxadiazolidines” (priority 1999, dated 2004)
